Experiments:
[1] = system: mammary tumors; conditions: NMU administered at 55 days of age; cited from earlier work
[2] = system: NMU-induced tumorigenesis in mammary glands; experiment: Prophylaxis of NMU-induced mammary tumorigenesis by intraductal injection; type: in vivo, Sprague Dawley rats; conditions: rats given NMU 50 mg/kg i.v. after treatment, monitored 8 months
Experimental: The mammary glands (6 on each side) of six virgin 50 day old Sprague Dawley rats were injected with AdHS-tk on the left side and trypan blue on the right side or left untreated. One rat remained completely untreated with the virus or GCV and served as a positive control for NMU-induced tumorigenesis. On the day of surgery, rats were given an intramuscular injection of 5 μg estradiol valerate and were anesthetized with an isofluorane/O2 mixture. The nipples were cannulated with a 33 gauge needle. Twenty μl of AdHS-tk diluted in trypan blue carrier (1 mM MgCl2, 20 μg/ml polybrene in 10% glycerol, 0.4% trypan blue in saline) at a concentration of 5×10^7 particles/μl were injected into the duct. Carrier control mammary glands received 20 μl of trypan blue carrier alone. An animal was considered treated when at least three glands were successfully injected with trypan blue and another three glands were successfully injected with AdHS-tk. The remaining glands were left untreated. Twelve hrs later, the rats were injected with 125 mg/kg body weight GCV twice daily for three days. […] Five to seven days after GCV treatment, the rats were given an intravenous injection of NMU dissolved in 0.05% acetic acid (Ash Stevens, CO; 50 mg NMU/kg body weight) and were subsequently monitored for general health and the appearance of tumors at weekly intervals for 8 months.

[3] = system: ductal carcinoma in situ, MNU-induced tumor formation; experiment: MNU-induced tumor formation rat model, teat infusion of anticancer agents; type: in vivo, Sprague Dawley rats; conditions: for incidence of tumor mass formation: within 6 months of MNU-injection; for rats with no visible masses or mammary lesions at necropsy: necropsy Day 180±2
Source text: The objective of this study was to evaluate the efficacy of five test articles (four marketed anticancer agents), administered directly into the mammary gland ducts via teat infusion, for therapy and prevention of ductal carcinoma in situ in an N-Nitroso-N-Methylurea (MNU)-induced tumor formation rat model. Based upon previous animal studies, candidates were selected for more rigorous evaluation at B Braun Biological Test Center (BTC) in Irvine, Calif. This facility was chosen to continue the preclinical work, started by Dr. Sukumar at JHU in order to support studies with a larger number of animals, in compliance with Good Laboratory Practices.
The agents were tested in 120 female Sprague Dawley rats (n=20 per treatment). On Day 1, each rat was injected intraperitoneally with MNU to induce tumor formation. […] Rats were weighed prior to MNU injection, prior to intra-ductal infusion, and once weekly throughout the study.
Rats were observed twice daily for mortality/morbidity and 1-3 times weekly for general appearance, stool appearance, signs of toxicity, and palpable mass formation until death or euthanasia. […] At necropsy, organs and tissues were grossly observed, and the entire bilateral mammary gland system, visible masses, and abnormal tissues were collected and retained in formalin.

[4] = Dose escalation study of intraductal cytotoxic drugs in women prior to mastectomy, safety; type: in vivo; conditions: 300 mg dose, five subjects per group
Experimental: (§1) The study was performed in Cancer Hospital, Chinese Academy of Medical Sciences, Beijing, China where the standard of care includes a long preoperative hospital stay prior to mastectomy. Two drugs, pegylated liposomal doxorubicin (PLD) and carboplatin (C) were administered at 3 dose levels (PLD: 10, 20, 50 mg and carboplatin 60, 120, 300 mg) with the highest dose approximating the clinical intravenous dose. There were five subjects in each group with 15 subjects treated with each drug once. After informed consent, under local anesthesia subjects underwent cannulation of 5-8 ducts with intraductal instillation of the drug. Venous blood samples were obtained for pharmacokinetic analysis. The total dosage was divided by the number of cannulated ducts to yield a dose per duct. The breast was removed surgically as planned 2-5 days post treatment and the treated ducts were marked to enable identification on pathological evaluation. Intraductal administration was generally well-tolerated with mild, transient breast discomfort upon administration associated with the rate of infusion. Clinically significant laboratory adverse events were limited to decreases in hemoglobin following mastectomy, consistent with blood loss. […] In the carboplatin arm, three women at the 300 mg dose experienced mild nausea and vomiting.

[5] = Pharmacokinetic analysis of venous blood after intraductal administration; type: in vivo, women; conditions: intraductal carboplatin
Experimental: as §1

CN(N=O)C(N)=O [NMU, N-Nitroso-N-Methylurea]
female rats that develop mammary tumors [1]: 90-100%

Nc1nc(O)c2ncn(COC(CO)CO)c2n1 [No injection; Ganciclovir, Ganciclovir]
% of Glands with Tumor [2]: 25.0% | No. of Tumors [2]: 5

CC(=O)O[C@H]1C(=O)[C@@]2(C)[C@H]([C@H](OC(=O)c3ccccc3)[C@]3(O)C[C@H](OC(=O)[C@H](O)[C@@H](NC(=O)c4ccccc4)c4ccccc4)C(C)=C1C3(C)C)[C@]1(OC(C)=O)CO[C@@H]1C[C@@H]2O [Taxol®, paclitaxel]
incidence of palpable masses during the course of the study ([3]; 0.15 mg/teat): highest and most rapid | number of rats with masses at final observations prior to death or euthanasia ([3]; 0.15 mg/teat intraductal on Day 15): 20 of 20 | rats with visible masses at necropsy ([3]; 0.15 mg/teat, necropsied 4 months post-MNU injection, 20 rats): 20 rats | incidence of tumor mass formation ([3]; 0.15 mg/teat): highest incidence of mass formation

N.N.O=C([O-])C1(C(=O)[O-])CCC1.[Pt+2] [carboplatin]
rats with no visible masses or mammary lesions at necropsy ([3]; 0.42 mg/teat): 5 of 20 | incidence of palpable masses during the course of the study ([3]; 0.75 mg/teat): lowest and least rapid | number of rats with masses at final observations prior to death or euthanasia ([3]; 0.75 mg/teat intraductal on Day 15): 11 of 20 | rats with no visible masses or mammary lesions at necropsy ([3]; 0.75 mg/teat): 7 of 19 | incidence of tumor mass formation ([3]; 0.75 mg/teat): lowest incidence of tumor mass formation | mild nausea and vomiting [4]: three | plasma ultrafiltrate AUC (area under the curve) [5]: consistent with the Calvert Formula using estimated GFR | peak time (tmax) ([5]; systemic circulation): ~30 min
